Measurements: patent US9340590B2 (priority 2011, dated 2016)
Positions of bridges follow the written chain, without caps; N, C: chain ends. Residues, ends and D or L forms follow the SMILES beside them.

How the values were obtained:
Assay in all cases: cell-based
[1] = molecular target: hNav1.7 (Homo sapiens, UniProt Q15858); format: cell-based; details: IonWorks Quattro, use-dependent block, hNav1.7; read-out: IWQ Use Nav1.7
[2] = molecular target: hNav1.5 (Homo sapiens, UniProt Q14524); details: IonWorks Quattro, use-dependent block, hNav1.5; read-out: IWQ Use Nav1.5
[3] = molecular target: hNav1.3 (Homo sapiens, UniProt Q9NY46); details: IonWorks Quattro, use-dependent block, hNav1.3; read-out: IWQ Use Nav1.3
Chain of hNav1.3 (Q9NY46 whole entry, looked up): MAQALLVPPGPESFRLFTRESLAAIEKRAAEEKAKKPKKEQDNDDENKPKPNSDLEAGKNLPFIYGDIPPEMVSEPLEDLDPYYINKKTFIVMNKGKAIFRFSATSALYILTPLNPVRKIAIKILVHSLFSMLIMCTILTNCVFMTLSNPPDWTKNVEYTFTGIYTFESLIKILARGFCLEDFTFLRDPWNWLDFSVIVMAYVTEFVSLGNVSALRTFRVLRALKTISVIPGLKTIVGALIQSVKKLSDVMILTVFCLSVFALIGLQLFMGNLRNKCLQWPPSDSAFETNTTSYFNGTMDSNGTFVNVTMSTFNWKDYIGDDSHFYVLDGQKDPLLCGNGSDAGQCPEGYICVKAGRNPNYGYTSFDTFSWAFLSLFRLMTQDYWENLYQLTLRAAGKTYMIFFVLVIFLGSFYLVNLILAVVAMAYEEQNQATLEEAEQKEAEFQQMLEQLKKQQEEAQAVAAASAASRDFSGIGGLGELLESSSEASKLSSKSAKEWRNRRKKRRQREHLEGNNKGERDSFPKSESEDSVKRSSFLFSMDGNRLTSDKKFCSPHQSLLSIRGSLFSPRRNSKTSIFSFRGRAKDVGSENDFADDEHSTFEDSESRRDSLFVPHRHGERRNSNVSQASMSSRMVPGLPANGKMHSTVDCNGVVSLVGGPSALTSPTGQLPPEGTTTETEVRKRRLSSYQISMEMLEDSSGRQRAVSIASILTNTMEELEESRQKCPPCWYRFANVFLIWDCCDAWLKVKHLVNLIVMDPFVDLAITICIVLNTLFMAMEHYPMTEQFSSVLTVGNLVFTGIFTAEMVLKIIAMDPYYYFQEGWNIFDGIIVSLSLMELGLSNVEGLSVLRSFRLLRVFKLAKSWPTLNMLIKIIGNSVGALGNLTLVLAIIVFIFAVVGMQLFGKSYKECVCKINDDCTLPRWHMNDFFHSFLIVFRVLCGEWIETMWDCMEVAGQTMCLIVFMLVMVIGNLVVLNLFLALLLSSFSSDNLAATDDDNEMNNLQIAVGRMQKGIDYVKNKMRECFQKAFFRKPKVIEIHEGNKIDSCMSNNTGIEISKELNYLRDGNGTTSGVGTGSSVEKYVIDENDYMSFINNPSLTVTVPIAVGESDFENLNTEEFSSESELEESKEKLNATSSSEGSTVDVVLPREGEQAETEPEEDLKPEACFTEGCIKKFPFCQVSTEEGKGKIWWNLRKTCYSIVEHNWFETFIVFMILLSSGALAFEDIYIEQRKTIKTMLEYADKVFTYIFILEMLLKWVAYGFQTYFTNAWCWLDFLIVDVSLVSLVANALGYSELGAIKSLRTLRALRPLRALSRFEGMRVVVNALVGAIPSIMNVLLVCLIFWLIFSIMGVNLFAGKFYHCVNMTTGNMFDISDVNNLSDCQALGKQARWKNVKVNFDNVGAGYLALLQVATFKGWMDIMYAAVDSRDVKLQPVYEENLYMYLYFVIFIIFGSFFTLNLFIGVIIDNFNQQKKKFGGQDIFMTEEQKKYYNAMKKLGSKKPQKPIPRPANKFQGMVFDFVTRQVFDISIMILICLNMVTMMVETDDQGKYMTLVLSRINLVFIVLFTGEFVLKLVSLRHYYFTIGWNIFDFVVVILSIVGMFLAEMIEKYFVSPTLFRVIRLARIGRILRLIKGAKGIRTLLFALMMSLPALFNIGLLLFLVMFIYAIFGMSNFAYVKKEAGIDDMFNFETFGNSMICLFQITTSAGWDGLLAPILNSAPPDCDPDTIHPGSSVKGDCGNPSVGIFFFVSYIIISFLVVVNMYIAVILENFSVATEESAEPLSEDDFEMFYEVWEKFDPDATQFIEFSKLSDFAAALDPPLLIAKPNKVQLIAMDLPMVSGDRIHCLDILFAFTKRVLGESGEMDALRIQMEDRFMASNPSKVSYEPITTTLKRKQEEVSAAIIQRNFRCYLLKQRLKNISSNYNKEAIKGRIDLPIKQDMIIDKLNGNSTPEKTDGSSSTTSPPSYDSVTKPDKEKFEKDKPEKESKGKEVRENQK

Chain of hNav1.5 (Q14524 whole entry, looked up): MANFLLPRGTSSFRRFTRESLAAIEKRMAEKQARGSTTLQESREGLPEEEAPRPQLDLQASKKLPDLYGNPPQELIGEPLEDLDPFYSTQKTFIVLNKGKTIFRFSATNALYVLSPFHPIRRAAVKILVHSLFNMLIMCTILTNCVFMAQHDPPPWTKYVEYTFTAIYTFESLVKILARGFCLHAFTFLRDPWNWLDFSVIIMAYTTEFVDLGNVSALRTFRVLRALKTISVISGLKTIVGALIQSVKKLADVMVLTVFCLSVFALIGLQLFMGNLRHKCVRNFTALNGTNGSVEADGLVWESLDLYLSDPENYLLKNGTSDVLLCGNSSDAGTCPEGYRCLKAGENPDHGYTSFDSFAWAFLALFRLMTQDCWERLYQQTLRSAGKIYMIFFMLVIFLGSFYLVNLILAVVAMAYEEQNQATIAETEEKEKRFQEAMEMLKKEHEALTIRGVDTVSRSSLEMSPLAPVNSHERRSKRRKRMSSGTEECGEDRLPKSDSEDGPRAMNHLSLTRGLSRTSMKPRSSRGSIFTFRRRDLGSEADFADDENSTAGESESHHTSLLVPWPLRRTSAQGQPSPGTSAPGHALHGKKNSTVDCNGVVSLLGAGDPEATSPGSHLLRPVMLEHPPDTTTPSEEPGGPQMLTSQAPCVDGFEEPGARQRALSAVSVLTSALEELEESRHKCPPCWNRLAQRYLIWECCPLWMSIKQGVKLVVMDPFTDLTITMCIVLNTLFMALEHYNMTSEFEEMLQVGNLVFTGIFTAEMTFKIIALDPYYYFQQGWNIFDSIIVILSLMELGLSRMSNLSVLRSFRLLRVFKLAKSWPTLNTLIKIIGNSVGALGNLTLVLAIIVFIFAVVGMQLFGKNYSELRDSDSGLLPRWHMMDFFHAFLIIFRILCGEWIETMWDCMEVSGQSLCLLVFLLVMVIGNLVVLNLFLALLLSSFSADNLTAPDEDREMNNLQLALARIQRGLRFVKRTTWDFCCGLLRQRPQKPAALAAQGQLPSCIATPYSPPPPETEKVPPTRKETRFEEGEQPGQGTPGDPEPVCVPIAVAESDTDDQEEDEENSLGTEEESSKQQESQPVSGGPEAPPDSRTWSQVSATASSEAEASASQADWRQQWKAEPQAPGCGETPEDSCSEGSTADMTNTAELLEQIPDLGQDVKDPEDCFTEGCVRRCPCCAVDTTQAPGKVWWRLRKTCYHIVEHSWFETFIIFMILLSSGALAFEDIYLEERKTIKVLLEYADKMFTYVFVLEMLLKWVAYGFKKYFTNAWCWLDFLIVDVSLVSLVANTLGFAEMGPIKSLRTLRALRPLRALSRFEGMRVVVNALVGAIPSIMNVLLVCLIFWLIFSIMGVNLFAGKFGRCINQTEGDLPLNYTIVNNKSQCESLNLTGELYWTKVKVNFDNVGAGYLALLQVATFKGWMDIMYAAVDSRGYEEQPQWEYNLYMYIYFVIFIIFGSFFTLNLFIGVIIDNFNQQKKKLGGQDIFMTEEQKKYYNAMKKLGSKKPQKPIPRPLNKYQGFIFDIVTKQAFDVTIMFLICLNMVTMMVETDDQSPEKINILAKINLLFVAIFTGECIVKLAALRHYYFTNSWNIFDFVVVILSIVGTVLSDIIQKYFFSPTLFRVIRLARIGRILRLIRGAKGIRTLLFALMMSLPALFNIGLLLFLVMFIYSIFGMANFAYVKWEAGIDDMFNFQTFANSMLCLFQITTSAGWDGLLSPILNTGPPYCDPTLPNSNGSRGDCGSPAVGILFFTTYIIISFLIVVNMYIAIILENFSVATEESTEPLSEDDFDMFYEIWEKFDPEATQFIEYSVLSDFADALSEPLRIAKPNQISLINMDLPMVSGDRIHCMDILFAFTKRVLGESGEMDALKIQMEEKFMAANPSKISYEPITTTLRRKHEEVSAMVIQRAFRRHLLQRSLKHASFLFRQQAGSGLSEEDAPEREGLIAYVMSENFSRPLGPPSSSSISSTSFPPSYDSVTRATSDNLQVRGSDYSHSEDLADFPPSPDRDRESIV

SMILES	IC50 [1] [µM]	IC50 [2] [µM]	IC50 [3] [µM]
CC[C@H](C)[C@@H]1NC(=O)[C@@H]2CSSC[C@@H]3NC(=O)[C@H](C(C)C)NC(=O)[C@H](CC(C)C)NC(=O)[C@H](CC(N)=O)NC(=O)[C@@H]4CCCN4C(=O)[C@H](CCCNC(=N)N)NC(=O)[C@H](CSSC[C@H](NC(=O)[C@@H](N)CC(=O)O)C(=O)N[C@@H](CC(C)C)C(=O)NCC(=O)N[C@@H](C)C(=O)N[C@@H](Cc4ccccc4)C(=O)N[C@@H](CCCNC(=N)N)C(=O)N[C@@H](CCCCN)C(=O)N2)NC(=O)[C@H](CSSC[C@@H](C(=O)N[C@@H](CCCCN)C(=O)N[C@@H](Cc2ccc(O)cc2)C(=O)N[C@H](C(=O)N[C@@H](Cc2ccccc2)C(=O)O)C(C)C)NC(=O)[C@H](Cc2c[nH]c4ccccc24)NC(=O)[C@H](C)NC(=O)[C@H](Cc2c[nH]cn2)NC(=O)[C@H]([C@@H](C)O)NC(=O)[C@H](CCCNC(=N)N)NC(=O)[C@H](CO)NC3=O)NC(=O)[C@H](CCCCN)NC(=O)[C@H](CC(=O)O)NC(=O)[C@H](CC(N)=O)NC(=O)[C@H](CC(=O)O)NC(=O)[C@@H]2CCCN2C1=O [compound 824] (H-DCLGAFRKCIPDNDKCCRPNLVCSRTHAWCKYVF-OH; disulfide 2-17, 9-23, 16-30)	> 5	> 5	> 5
CC[C@H](C)[C@@H]1NC(=O)[C@@H]2CSSC[C@@H]3NC(=O)[C@H](C(C)C)NC(=O)[C@H](CC(C)C)NC(=O)[C@H](CC(N)=O)NC(=O)[C@@H]4CCCN4C(=O)[C@H](CCCNC(=N)N)NC(=O)[C@H](CSSC[C@H](NC(=O)[C@@H](N)CC(=O)O)C(=O)N[C@@H](CC(C)C)C(=O)NCC(=O)N[C@@H](C)C(=O)N[C@@H](Cc4ccccc4)C(=O)N[C@@H](CCCNC(=N)N)C(=O)N[C@@H](CCCCN)C(=O)N2)NC(=O)[C@H](CSSC[C@@H](C(=O)N[C@@H](CCCCN)C(=O)N[C@@H](Cc2ccc(O)cc2)C(=O)N[C@H](C(=O)N[C@@H](Cc2ccccc2)C(=O)O)C(C)C)NC(=O)[C@H](Cc2c[nH]c4ccccc24)NC(=O)[C@H](CC(=O)O)NC(=O)[C@H](Cc2c[nH]cn2)NC(=O)[C@H]([C@@H](C)O)NC(=O)[C@H](CCCNC(=N)N)NC(=O)[C@H](CO)NC3=O)NC(=O)[C@H](CCCCN)NC(=O)[C@H](CC(=O)O)NC(=O)[C@H](CC(N)=O)NC(=O)[C@H](CC(=O)O)NC(=O)[C@@H]2CCCN2C1=O [compound 825] (H-DCLGAFRKCIPDNDKCCRPNLVCSRTHDWCKYVF-OH; disulfide 2-17, 9-23, 16-30)	> 5	> 5	> 5
CC[C@H](C)[C@@H]1NC(=O)[C@@H]2CSSC[C@@H]3NC(=O)[C@H](C(C)C)NC(=O)[C@H](CC(C)C)NC(=O)[C@H](CC(N)=O)NC(=O)[C@@H]4CCCN4C(=O)[C@H](CCCNC(=N)N)NC(=O)[C@H](CSSC[C@H](NC(=O)[C@@H](N)CC(=O)O)C(=O)N[C@@H](CC(C)C)C(=O)NCC(=O)N[C@@H](C)C(=O)N[C@@H](Cc4ccccc4)C(=O)N[C@@H](CCCNC(=N)N)C(=O)N[C@@H](CCCCN)C(=O)N2)NC(=O)[C@H](CSSC[C@@H](C(=O)N[C@@H](CCCCN)C(=O)N[C@@H](Cc2ccc(O)cc2)C(=O)N[C@H](C(=O)N[C@@H](Cc2ccccc2)C(=O)O)C(C)C)NC(=O)[C@H](Cc2c[nH]c4ccccc24)NC(=O)[C@H](CCC(=O)O)NC(=O)[C@H](Cc2c[nH]cn2)NC(=O)[C@H]([C@@H](C)O)NC(=O)[C@H](CCCNC(=N)N)NC(=O)[C@H](CO)NC3=O)NC(=O)[C@H](CCCCN)NC(=O)[C@H](CC(=O)O)NC(=O)[C@H](CC(N)=O)NC(=O)[C@H](CC(=O)O)NC(=O)[C@@H]2CCCN2C1=O [compound 826] (H-DCLGAFRKCIPDNDKCCRPNLVCSRTHEWCKYVF-OH; disulfide 2-17, 9-23, 16-30)	> 5	> 5	1.8
CC[C@H](C)[C@@H]1NC(=O)[C@@H]2CSSC[C@@H]3NC(=O)[C@H](C(C)C)NC(=O)[C@H](CC(C)C)NC(=O)[C@H](CC(N)=O)NC(=O)[C@@H]4CCCN4C(=O)[C@H](CCCNC(=N)N)NC(=O)[C@H](CSSC[C@H](NC(=O)[C@@H](N)CC(=O)O)C(=O)N[C@@H](CC(C)C)C(=O)NCC(=O)N[C@@H](C)C(=O)N[C@@H](Cc4ccccc4)C(=O)N[C@@H](CCCNC(=N)N)C(=O)N[C@@H](CCCCN)C(=O)N2)NC(=O)[C@H](CSSC[C@@H](C(=O)N[C@@H](CCCCN)C(=O)N[C@@H](Cc2ccc(O)cc2)C(=O)N[C@H](C(=O)N[C@@H](Cc2ccccc2)C(=O)O)C(C)C)NC(=O)[C@H](Cc2c[nH]c4ccccc24)NC(=O)CNC(=O)[C@H](Cc2c[nH]cn2)NC(=O)[C@H]([C@@H](C)O)NC(=O)[C@H](CCCNC(=N)N)NC(=O)[C@H](CO)NC3=O)NC(=O)[C@H](CCCCN)NC(=O)[C@H](CC(=O)O)NC(=O)[C@H](CC(N)=O)NC(=O)[C@H](CC(=O)O)NC(=O)[C@@H]2CCCN2C1=O [compound 827] (H-DCLGAFRKCIPDNDKCCRPNLVCSRTHGWCKYVF-OH; disulfide 2-17, 9-23, 16-30)	> 5	> 5	> 5
CC[C@H](C)[C@@H]1NC(=O)[C@@H]2CSSC[C@@H]3NC(=O)[C@H](C(C)C)NC(=O)[C@H](CC(C)C)NC(=O)[C@H](CC(N)=O)NC(=O)[C@@H]4CCCN4C(=O)[C@H](CCCNC(=N)N)NC(=O)[C@H](CSSC[C@H](NC(=O)[C@@H](N)CC(=O)O)C(=O)N[C@@H](CC(C)C)C(=O)NCC(=O)N[C@@H](C)C(=O)N[C@@H](Cc4ccccc4)C(=O)N[C@@H](CCCNC(=N)N)C(=O)N[C@@H](CCCCN)C(=O)N2)NC(=O)[C@H](CSSC[C@@H](C(=O)N[C@@H](CCCCN)C(=O)N[C@@H](Cc2ccc(O)cc2)C(=O)N[C@H](C(=O)N[C@@H](Cc2ccccc2)C(=O)O)C(C)C)NC(=O)[C@H](Cc2c[nH]c4ccccc24)NC(=O)[C@H](Cc2c[nH]cn2)NC(=O)[C@H](Cc2c[nH]cn2)NC(=O)[C@H]([C@@H](C)O)NC(=O)[C@H](CCCNC(=N)N)NC(=O)[C@H](CO)NC3=O)NC(=O)[C@H](CCCCN)NC(=O)[C@H](CC(=O)O)NC(=O)[C@H](CC(N)=O)NC(=O)[C@H](CC(=O)O)NC(=O)[C@@H]2CCCN2C1=O [compound 828] (H-DCLGAFRKCIPDNDKCCRPNLVCSRTHHWCKYVF-OH; disulfide 2-17, 9-23, 16-30)	> 5	> 5	> 5
CC[C@H](C)[C@@H]1NC(=O)[C@@H]2CSSC[C@@H]3NC(=O)[C@H](C(C)C)NC(=O)[C@H](CC(C)C)NC(=O)[C@H](CC(N)=O)NC(=O)[C@@H]4CCCN4C(=O)[C@H](CCCNC(=N)N)NC(=O)[C@H](CSSC[C@H](NC(=O)[C@@H](N)CC(=O)O)C(=O)N[C@@H](CC(C)C)C(=O)NCC(=O)N[C@@H](C)C(=O)N[C@@H](Cc4ccccc4)C(=O)N[C@@H](CCCNC(=N)N)C(=O)N[C@@H](CCCCN)C(=O)N2)NC(=O)[C@H](CSSC[C@@H](C(=O)N[C@@H](CCCCN)C(=O)N[C@@H](Cc2ccc(O)cc2)C(=O)N[C@H](C(=O)N[C@@H](Cc2ccccc2)C(=O)O)C(C)C)NC(=O)[C@H](Cc2c[nH]c4ccccc24)NC(=O)[C@H](CCCCN)NC(=O)[C@H](Cc2c[nH]cn2)NC(=O)[C@H]([C@@H](C)O)NC(=O)[C@H](CCCNC(=N)N)NC(=O)[C@H](CO)NC3=O)NC(=O)[C@H](CCCCN)NC(=O)[C@H](CC(=O)O)NC(=O)[C@H](CC(N)=O)NC(=O)[C@H](CC(=O)O)NC(=O)[C@@H]2CCCN2C1=O [compound 829] (H-DCLGAFRKCIPDNDKCCRPNLVCSRTHKWCKYVF-OH; disulfide 2-17, 9-23, 16-30)	> 5	> 5	2.3
